Common to all, as to format: cell-based
One test addresses T1, hEP4/Gqs5 (Homo sapiens, UniProt P35408).
T1 construct: expressed in transfected cells; host or cells: HEK-293(EBNA)
In words: FLIPR calcium signal, HEK-293(EBNA) cells expressing hEP4/Gqs5. To be noted: for EC50: read-out: Ca2+ Signal-EC50(nM) EP4. How it is done:
(§1) HEK-293(EBNA) cells, stably expressing one type or subtype of recombinant human prostaglandin receptors (prostaglandin receptors expressed: hDP/Gqs5; hEP1; hEP2/Gqs5; hEP3A/Gqi5; hEP4/Gqs5; hFP; hIP; hTP), were cultured in 100 mm culture dishes in high-glucose DMEM medium containing 10% fetal bovine serum, 2 mM l-glutamine, 250 µg/ml geneticin (G418) and 200 μg/ml hygromycin B as selection markers, and 100 units/ml penicillin G, 100 µg/ml streptomycin and 0.25 μg/ml amphotericin B.
(§2) Cells were seeded at a density of 5×10^4 cells per well in Biocoat® Poly-D-lysine-coated black-wall, clear-bottom 96-well plates (Becton-Dickinson) and allowed to attach overnight in an incubator at 37° C. Cells were then washed two times with HBSS-HEPES buffer (Hanks Balanced Salt Solution without bicarbonate and phenol red, 20 mM HEPES, pH 7.4) using a Denley Cellwash plate washer (Labsystems). After 45 minutes of dye-loading in the dark, using the calcium-sensitive dye Fluo-4 […] at a final concentration of 2 μM, plates were washed four times with HBSS-HEPES buffer to remove excess dye leaving 100 μl in each well. Plates were re-equilibrated to 37° C. for a few minutes.
(§3) Cells were excited with an Argon laser at 488 nm, and emission was measured through a 510-570 nm bandwidth emission filter (FLIPR™, Molecular Devices, Sunnyvale, Calif.). Drug solution was added in a 50 µl volume to each well to give the desired final concentration. The peak increase in fluorescence intensity was recorded for each well. On each plate, four wells each served as negative (HBSS-HEPES buffer) and positive controls (standard agonists: BW245C (hDP); PGE2 (hEP1; hEP2/Gqs5; hEP3A/Gqi5; hEP4/Gqs5); PGF2α (hFP); carbacyclin (hIP); U-46619 (hTP), depending on receptor). The peak fluorescence change in each drug-containing well was then expressed relative to the controls.
(§4) Compounds were tested in a high-throughput (HTS) or concentration-response (CoRe) format. In the HTS format, forty-four compounds per plate were examined in duplicates at a concentration of 10^−5 M. To generate concentration-response curves, four compounds per plate were tested in duplicates in a concentration range between 10^−5 and 10^−11 M. The duplicate values were averaged. In either, HTS or CoRe format each compound was tested on at least 3 separate plates using cells from different passages to give an n≧3.

For another test, the target named is T2, hEP3A/Gqi5 (Homo sapiens, UniProt P43115).
T2 construct: expressed in transfected cells; host or cells: HEK-293(EBNA)
T2 sequence (P43115 1-390): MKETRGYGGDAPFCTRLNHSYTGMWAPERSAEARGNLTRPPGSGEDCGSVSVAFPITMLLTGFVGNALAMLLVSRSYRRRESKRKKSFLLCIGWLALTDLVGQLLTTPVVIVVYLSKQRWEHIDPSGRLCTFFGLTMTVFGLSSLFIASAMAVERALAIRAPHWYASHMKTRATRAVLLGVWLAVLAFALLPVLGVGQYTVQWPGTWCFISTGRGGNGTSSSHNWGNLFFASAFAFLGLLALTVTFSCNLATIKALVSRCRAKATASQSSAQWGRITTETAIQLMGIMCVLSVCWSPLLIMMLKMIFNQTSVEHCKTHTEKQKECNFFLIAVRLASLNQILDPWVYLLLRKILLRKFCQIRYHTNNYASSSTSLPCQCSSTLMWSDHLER
In words: FLIPR calcium signal, HEK-293(EBNA) cells expressing hEP3A/Gqi5. The note with it: for EC50: read-out: Ca2+ Signal-EC50(nM) EP3. The protocol:
as §1, §2, §3, §4

In the next test the target is T3, hEP1 (Homo sapiens, UniProt P34995).
T3 construct: expressed in transfected cells; host or cells: HEK-293(EBNA)
T3 sequence (P34995 1-402): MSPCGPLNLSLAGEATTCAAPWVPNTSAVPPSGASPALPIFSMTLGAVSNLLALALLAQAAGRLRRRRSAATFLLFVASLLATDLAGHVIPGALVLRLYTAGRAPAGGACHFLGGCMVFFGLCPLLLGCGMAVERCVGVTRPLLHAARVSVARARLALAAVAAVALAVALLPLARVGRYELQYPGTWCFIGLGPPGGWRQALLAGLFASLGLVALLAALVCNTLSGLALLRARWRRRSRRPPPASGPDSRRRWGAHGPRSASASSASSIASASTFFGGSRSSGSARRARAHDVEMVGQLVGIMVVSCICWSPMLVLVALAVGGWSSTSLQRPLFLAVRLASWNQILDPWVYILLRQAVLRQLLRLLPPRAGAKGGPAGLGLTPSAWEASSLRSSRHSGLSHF
Kind of test: FLIPR calcium signal, HEK-293(EBNA) cells expressing hEP1. The protocol:
as §1, §2, §3, §4

The target of another test is T4, hTP (Homo sapiens, UniProt P21731).
T4 construct: expressed in transfected cells; host or cells: HEK-293(EBNA)
T4 sequence (P21731 1-343): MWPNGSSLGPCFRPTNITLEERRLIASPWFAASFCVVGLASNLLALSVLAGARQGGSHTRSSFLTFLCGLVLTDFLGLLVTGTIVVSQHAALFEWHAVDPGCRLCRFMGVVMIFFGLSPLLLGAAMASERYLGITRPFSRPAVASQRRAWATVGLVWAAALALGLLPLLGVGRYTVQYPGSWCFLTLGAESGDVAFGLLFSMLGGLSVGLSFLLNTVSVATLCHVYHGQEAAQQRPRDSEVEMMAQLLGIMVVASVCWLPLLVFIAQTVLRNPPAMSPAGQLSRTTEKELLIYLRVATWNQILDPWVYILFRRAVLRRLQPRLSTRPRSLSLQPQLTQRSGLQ
Kind of test: FLIPR calcium signal, HEK-293(EBNA) cells expressing hTP. How it is done: as §1, §2, §3, §4

For the next test, the target named is EP2 (Homo sapiens, UniProt P43116). Kind of test: cAMP measurement, EP2 (data in parentheses). The note with it: data in parentheses refer to cAMP measurement.
EP2, sequence (P43116 whole entry): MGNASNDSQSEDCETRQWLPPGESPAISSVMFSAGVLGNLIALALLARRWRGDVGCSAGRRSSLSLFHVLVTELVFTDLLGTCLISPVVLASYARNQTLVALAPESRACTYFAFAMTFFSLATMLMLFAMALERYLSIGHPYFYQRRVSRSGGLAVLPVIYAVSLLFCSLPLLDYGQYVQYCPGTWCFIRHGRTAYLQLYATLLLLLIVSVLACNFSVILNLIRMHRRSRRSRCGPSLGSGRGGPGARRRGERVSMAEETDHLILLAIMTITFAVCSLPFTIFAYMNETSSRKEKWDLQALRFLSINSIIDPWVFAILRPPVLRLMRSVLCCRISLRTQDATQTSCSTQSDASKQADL
The target of another test is T5, hEP2/Gqs5 (Homo sapiens, UniProt P43116).
T5 construct: expressed in transfected cells; host or cells: HEK-293(EBNA)
T5 sequence (P43116 whole entry): as above
Kind of test: FLIPR calcium signal, HEK-293(EBNA) cells expressing hEP2/Gqs5. The note with it: value outside parentheses, read-out: Ca2+ Signal-EC50(nM) EP2. How it is done:
as §1, §2, §3, §4

A further test concerns the target T6, hDP/Gqs5 (Homo sapiens, UniProt Q13258).
T6 construct: expressed in transfected cells; host or cells: HEK-293(EBNA)
T6 sequence (Q13258 1-359): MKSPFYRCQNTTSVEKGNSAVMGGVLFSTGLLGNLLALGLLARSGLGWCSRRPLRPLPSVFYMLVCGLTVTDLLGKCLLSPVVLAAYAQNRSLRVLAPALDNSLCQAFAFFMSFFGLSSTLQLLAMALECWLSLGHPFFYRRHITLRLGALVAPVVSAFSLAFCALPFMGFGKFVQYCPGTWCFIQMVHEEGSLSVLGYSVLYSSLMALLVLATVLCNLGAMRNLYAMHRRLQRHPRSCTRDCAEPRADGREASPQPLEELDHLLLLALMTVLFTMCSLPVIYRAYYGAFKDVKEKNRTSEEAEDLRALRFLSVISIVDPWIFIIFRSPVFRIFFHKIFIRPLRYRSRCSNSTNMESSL
In words: FLIPR calcium signal, HEK-293(EBNA) cells expressing hDP/Gqs5. How it is done: as §1, §2, §3, §4

The next test addresses T7, hFP (Homo sapiens, UniProt P43088).
T7 construct: expressed in transfected cells; host or cells: HEK-293(EBNA)
In words: FLIPR calcium signal, HEK-293(EBNA) cells expressing hFP. The protocol:
as §1, §2, §3, §4

T1 sequence (P35408 whole entry): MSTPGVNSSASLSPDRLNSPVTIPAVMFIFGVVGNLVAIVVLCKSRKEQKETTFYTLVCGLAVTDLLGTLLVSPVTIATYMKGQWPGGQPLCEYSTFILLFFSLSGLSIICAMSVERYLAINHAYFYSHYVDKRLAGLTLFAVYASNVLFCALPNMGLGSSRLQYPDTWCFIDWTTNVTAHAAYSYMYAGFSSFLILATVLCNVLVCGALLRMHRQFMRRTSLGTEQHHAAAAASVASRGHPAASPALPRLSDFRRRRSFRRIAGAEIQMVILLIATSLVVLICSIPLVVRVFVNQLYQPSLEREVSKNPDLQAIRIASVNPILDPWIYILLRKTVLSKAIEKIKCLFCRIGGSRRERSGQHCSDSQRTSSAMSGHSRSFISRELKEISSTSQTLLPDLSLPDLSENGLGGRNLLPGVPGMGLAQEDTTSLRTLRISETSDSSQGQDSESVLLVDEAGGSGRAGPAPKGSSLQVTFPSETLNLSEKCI
T7 sequence (P43088 whole entry): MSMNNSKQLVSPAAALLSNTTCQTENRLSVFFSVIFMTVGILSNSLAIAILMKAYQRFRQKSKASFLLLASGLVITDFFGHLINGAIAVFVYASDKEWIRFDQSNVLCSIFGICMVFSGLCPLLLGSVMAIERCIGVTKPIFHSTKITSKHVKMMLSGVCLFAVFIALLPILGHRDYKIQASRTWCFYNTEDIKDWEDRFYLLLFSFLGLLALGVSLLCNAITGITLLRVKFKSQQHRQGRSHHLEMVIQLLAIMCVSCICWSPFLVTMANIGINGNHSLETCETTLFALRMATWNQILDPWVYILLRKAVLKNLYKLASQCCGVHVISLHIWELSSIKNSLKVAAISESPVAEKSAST

On to `CCCCCC(O)c1ccc([C@H]2C(=O)CC[C@@H]2CCCc2ccc(C(=O)O)s2)cc1` (some centres unmarked) [compound 1], for which the concentration for a half-maximal effect (EC50) at hEP4/Gqs5 was above 10000 nM; on hEP3A/Gqi5, 8780 nM; on EP2, 5 nM; on hEP2/Gqs5, 62 nM. The “Ca2+ Signal-EC50(nM) EP1” value at hEP1 is on record as “notactive”. Moreover, on hTP, the “Ca2+ Signal-EC50(nM) TP” value is on record as “notactive”. The “Ca2+ Signal-EC50(nM) DP” value on hDP/Gqs5 is recorded as “notactive”. Also, the “Ca2+ Signal-EC50(nM) FP” value on hFP is “notactive”.

On to `CCCCCC(O)c1ccc([C@H]2C(=O)CC[C@@H]2CCCc2ccc(C(=O)O)s2)cc1` (some centres unmarked) [compound 2], for which the “Ca2+ Signal-EC50(nM) EP4” value at hEP4/Gqs5 is on record as “notactive”. Also, the “Ca2+ Signal-EC50(nM) EP3” value on hEP3A/Gqi5 is listed as “notactive”. For the same compound, the “Ca2+ Signal-EC50(nM) EP1” value on hEP1 was “notactive”. Besides, the “Ca2+ Signal-EC50(nM) TP” value at hTP is “notactive”. Further, the EC50 on EP2 came out at 9 nM; on hEP2/Gqs5 it was 25 nM; on hDP/Gqs5 (read-out: Ca2+ Signal-EC50(nM) DP), 9060 nM. Further, the “Ca2+ Signal-EC50(nM) FP” value at hFP is “notactive”.

Turning to `CCCCCC(O)c1ccc([C@@H]2[C@@H](CCCc3ccc(C(=O)O)s3)CCC2(Cl)Cl)cc1` (some centres unmarked) [compound 3], the “Ca2+ Signal-EC50(nM) EP4” value at hEP4/Gqs5 was “notactive”. The “Ca2+ Signal-EC50(nM) EP3” value at hEP3A/Gqi5 is listed as “notactive”. Moreover, the “Ca2+ Signal-EC50(nM) EP1” value on hEP1 is “notactive”. At hTP, the “Ca2+ Signal-EC50(nM) TP” value is listed as “notactive”. Also, the EC50 on EP2 came out at 3 nM; at hEP2/Gqs5, 1620 nM. The “Ca2+ Signal-EC50(nM) DP” value on hDP/Gqs5 is “notactive”. For the same compound, the “Ca2+ Signal-EC50(nM) FP” value at hFP is reported as “notactive”.

In the case of `CCCCCC(O)c1ccc([C@H]2C(=O)CC[C@@H]2C/C=C\CCCC(=O)O)cc1` (some centres unmarked) [compound 5], the “Ca2+ Signal-EC50(nM) EP4” value on hEP4/Gqs5 is “notactive”. Also, the concentration for a half-maximal effect (EC50) at hEP3A/Gqi5 is 4420 nM; at EP2, 34 nM; at hEP2/Gqs5, 381 nM. Also, on hEP1, the “Ca2+ Signal-EC50(nM) EP1” value is reported as “notactive”. Besides, at hTP, the “Ca2+ Signal-EC50(nM) TP” value was “notactive”. Further, at hDP/Gqs5, the “Ca2+ Signal-EC50(nM) DP” value is on record as “notactive”. Further, the “Ca2+ Signal-EC50(nM) FP” value at hFP is given as “notactive”.

As to `CCCCCC(O)c1ccc([C@@H]2[C@@H](C/C=C\CCCC(=O)O)CC[C@H]2Cl)cc1` (some centres unmarked) [compound 6], the “Ca2+ Signal-EC50(nM) EP4” value at hEP4/Gqs5 is “notactive”. The EC50 was found to be 182 nM on hEP3A/Gqi5, 94 nM on EP2 and 731 nM on hEP2/Gqs5. The “Ca2+ Signal-EC50(nM) EP1” value at hEP1 is on record as “notactive”. For the same compound, the “Ca2+ Signal-EC50(nM) TP” value on hTP is recorded as “notactive”. The “Ca2+ Signal-EC50(nM) DP” value at hDP/Gqs5 was “notactive”. The “Ca2+ Signal-EC50(nM) FP” value at hFP is recorded as “notactive”.

`CCCCCC(O)c1ccc([C@@H]2[C@@H](C/C=C\CCCC(=O)O)CC[C@H]2O)cc1` (some centres unmarked) [compound 7]: the half-maximal effective concentration (EC50) at hEP4/Gqs5 was above 10000 nM; on hEP3A/Gqi5 it was 3480 nM; at EP2, 73 nM; at hEP2/Gqs5 it was 2510 nM. For the same compound, the “Ca2+ Signal-EC50(nM) EP1” value at hEP1 is on record as “notactive”. The “Ca2+ Signal-EC50(nM) TP” value at hTP is “notactive”. Besides, the “Ca2+ Signal-EC50(nM) DP” value at hDP/Gqs5 is “notactive”. Further, the “Ca2+ Signal-EC50(nM) FP” value at hFP was “notactive”.

In the case of `CCCCCC(O)c1ccc([C@H]2C(=O)C=C[C@@H]2CCCc2ccc(C(=O)O)s2)cc1` (some centres unmarked) [compound 11], the EC50 on hEP4/Gqs5 was above 10000 nM; on hEP3A/Gqi5, 4550 nM; on EP2, 9 nM; on hEP2/Gqs5 it was 208 nM. The “Ca2+ Signal-EC50(nM) EP1” value on hEP1 is recorded as “notactive”. Besides, the “Ca2+ Signal-EC50(nM) TP” value at hTP is reported as “notactive”. Also, at hDP/Gqs5, the “Ca2+ Signal-EC50(nM) DP” value was “notactive”. The “Ca2+ Signal-EC50(nM) FP” value on hFP is given as “notactive”.

As usually defined, the EC50 is the midpoint of the concentration-response curve.
